Where two headings read alike, the source gives them in different places.
Legend:
[1] = cited from earlier work; for pKa (base), literature: ref [23], [30]
CYP2B6 = test system: CYP2B6; design: method as in ref [17, 18] of supplement; details: literature value adapted with fu,inc; ref [17, 18] of supplement; read-out: CYP2B6 Km → (E)-4-OH-Clom; cited from earlier work
CYP2D6 [2] = assay: In vitro scaling factors from CYP2D6 activity score-specific in vitro metabolite formation rates; format: in vitro ADME, human
Excerpt: Here, kcat, AS=i represents the catalytic rate constant for CYP2D6 AS = i, kcat, AS=2 is the catalytic rate constant for the NM population and IVSFi is the corresponding in vitro scaling factor (IVSF).
S2. Drug-Gene-Interaction (DGI) Modeling
S2.1. CYP2D6 in vitro Scaling Factors
The estimated CYP2D6 kcat values for the NM population were extrapolated to the intermediate metabolizers (IM) (AS=0.5, AS=0.75 and AS=1) and ultrarapid metabolizers (UM) populations according to Equation 1 in the main manuscript, using in vitro scaling factors (IVSFs). Determination of IVSFs were based on AS-specific in vitro metabolite formation rates relative to the corresponding formation rate in NM as a reference. The respective IVSFs for each CYP2D6-dependent pathway are depicted in Table S8. Measured in vitro data for (E)-4-OH-Clom and (E)-4-OH-DE-Clom AS-specific formation rates were available, while mean values were assumed for the remaining CYP2D6-dependent metabolic pathways.
Table S8. Employed in vitro scaling factors (IVSFs) for individual CYP2D6 activity scores. […]

[3] = Bioavailability calculated from literature AUC0-24h after oral and intravenous clomiphene citrate; format: in vivo, human; details: 50 mg clomiphene citrate; intravenous study n = 2
Excerpt: Both isomers show highly distinct pharmacokinetic characteristics and also differ in affinity to the target receptor [22, 28]. […] While the calculated value from the literature is based on an intravenous study with a small number of study participants (n = 2), a low bioavailability can be supported with the developed PBPK model.

[4] = Pharmacokinetic panel study in CYP2D6-genotyped healthy female volunteers (observed plasma AUClast/Cmax, DGI and DD(G)I with clarithromycin or paroxetine); format: in vivo, human; details: for order of AUClast across CYP2D6 phenotypes: DGI setting
Description: Clinical data from a recently performed pharmacokinetic panel study (EudraCT-Nr.: 2009-014531-20, ClinicalTrails.gov: NCT01289756) were used for PBPK model development. The study protocol, patient information sheet and consent form were approved by the Ethics Committee of the University of Tübingen and the German Federal Institute for Drugs and Medical Devices (BfArM). All study participants had signed an informed consent form.
The study was conducted in 20 healthy, Caucasian, premenopausal female volunteers that were genotyped for CYP2D6 polymorphisms and subsequently assigned to predicted phenotypes according to the respective CYP2D6 activity score (AS) as depicted in Table 1 [17, 18]. […] After a wash-out phase of at least three weeks, clomiphene was administered concomitantly with the strong CYP3A4 inhibitor clarithromycin [19]. Here, the participants received 500 mg clarithromycin twice daily for four days. On day 5, a single dose of clomiphene citrate was administered together with 500 mg clarithromycin. Finally, in the third period, all subjects received clomiphene citrate together with the strong CYP2D6 inhibitor paroxetine. Here, 40 mg paroxetine was administered once daily for two days. On day 3, participants received a single dose of clomiphene citrate concomitantly with 40 mg paroxetine (Figure 1).
For the evaluation of DGI and DD(G)I effects, the predicted AUClast and Cmax effect ratios were calculated according to Equations (4) and (5) and compared with the corresponding observed values. Here, model performance was assessed using the prediction acceptance limits proposed by Guest et al. with 1.25-fold variability. (4) AUClast, AS=i ratio=AUClast, effect, AS=i/AUClast, control (5) Cmax, AS=i ratio=Cmax, effect, AS=i/Cmax, control
For the calculation of DGI ratios, AUClast, effect, AS=i and Cmax, effect, AS=i represent the AUClast and Cmax for CYP2D6 AS = i, while AUClast, control and Cmax, control are the AUClast and Cmax values for the NM (AS = 2) population. For the calculation of DD(G)I ratios, AUClast, effect, AS=i and Cmax, effect, AS=i represent the AUClast and Cmax for the CYP2D6 AS = i in the DD(G)I scenario with clarithromycin or paroxetine, while AUClast, control and Cmax, control are the AUClast and Cmax values for the CYP2D6 AS = i without the concomitant use of perpetrator drugs.

CYP3A4 [5] = assay: Fraction metabolized via CYP3A4 calculated from observed AUClast (NM with vs without clarithromycin, Equation S1); format: in vivo, human; details: estimated from observed AUClast increase in NM with clarithromycin
Description: Calculation of Fractions Metabolized
(§1) (normal metabolizers (NM)) [39]. […] In addition, data from
(§2) the CYP2D6 NM population in the clarithromycin DDI scenario (CYP3A4 inhibition) was used to
(§3) For this, the observed relative AUClast increase in the NM population between
(§4) the DDI scenario with CYP3A4 inhibition and the control scenario without inhibition was used,
Of note, a complete CYP3A4 inhibition through clarithromycin
was assumed, given the strong and mechanism-based inhibition through clarithromycin, which was
(§5) 1 −fm = AUClast,effect,AS=iAUClast,control (S1)
for the NM population without concomitant clarithromycin administration.

CYP3A4 [6] = test system: CYP3A4; design: method as in ref [17, 18] of supplement; details: literature value adapted with fu,inc; ref [17, 18] of supplement; read-out: CYP3A4 Km → (E)-DE-Clom; cited from earlier work
CYP2D6 [7] = details: cited from earlier work; for Km: literature value adapted with fu,inc
CYP2D6 [8] = assay: Fraction metabolized via CYP2D6 calculated from observed AUClast (PM vs NM, Equation S1); format: in vivo, human; details: calculated from observed relative AUClast increase PM vs NM
Description: Calculation of Fractions Metabolized
as §1, §2, §3, §4, §5

CYP2D6 [9] = assay: PBPK model: CYP2D6-mediated metabolism (Km, kcat, contribution); design: species or system human; details: Assumed equal to Km of CYP2D6-mediated hydroxylation of (E)-4-OH-Clom, adapted with fu,inc=0.243; read-out: CYP2D6 Km → undef., assumed
Excerpt: An additional biotransformation process via CYP2B6 to (E)-4-OH-Clom was implemented to cover the fraction of CYP2D6-independent metabolism observed in the PM population and in CYP2D6 DD(G)I scenarios.
(E)-4-OH-Clom is metabolized via CYP2D6 to (Z)-3,4-dihydroxyclomiphene (implemented as an undefined metabolite), via an unspecific hepatic clearance mechanism and via CYP3A4 to the second active metabolite (E)-4-OH-DE-Clom. (E)-4-OH-DE-Clom is also formed via CYP2D6 metabolism of (E)-DE-Clom, which in turn, represents the main route of elimination of (E)-DE-Clom. Furthermore, (E)-DE-Clom is metabolized to minor extents through CYP2D6 and CYP3A4 to (E)-N,N-didesethylclomiphene (implemented as an undefined metabolite). The metabolism of (E)-4-OH-DE-Clom has not been extensively investigated, yet. According to work by Kröner, (E)-4-OH-DE-Clom is presumably metabolized through a CYP-mediated pathway to (Z)-3,4-dihydroxydesethyl-clomiphene. […]
This was integrated by accounting for the 80:20 metabolic ratio of CYP3A4 to CYP2D6 reported by Mazzarino and coworkers. […] As previously described, the ratio of the corresponding measured in vitro metabolic enzyme activities was used dur-ing the parameter estimation step for optimization of kcat values (kcat, CYP3A4 = 0.13 * kcat, CYP2D6)

estrogen receptor = details: read-out: half-maximal inhibitory concentration towards the estrogen receptor; cited from earlier work
[10] = design: method as in PMID 22108178; details: healthy female volunteers; cited from earlier work
[11] = [34], [38] of supplement (ChemAxon Chemicalize)

Q: Which “Solubility (pH 6.8)” value ([1]; pH 6.8, ref [24] of supplement) does the source give for `CCN(CC)CCOc1ccc(/C(=C(/Cl)c2ccccc2)c2ccccc2)cc1` [(E)-Clom, (E)-clomiphene, reference compound] here?
A: Its value is 0.0138 mg/ml.

Q: What about the “pKa (base), literature” value [1, 11] of the same compound?
A: Its value is 9.31.

Q: What about the Km (CYP2B6) of the same compound?
A: Its Km is 0.6 µM.

Q: And the “IVSF, CYP2D6-mediated pathway → (E)-DE-Clom” value (shortened to “IVSF … (E)-DE-Clom”) (CYP2D6 [2]; AS=0, mean value assumed)?
A: Its value is 0.

Q: What about the “IVSF, CYP2D6-mediated pathway → undef.” value (CYP2D6 [2]; AS=0, mean value assumed) of the same compound?
A: Its value is 0.

Q: What about the “IVSF, CYP2D6-mediated pathway → (E)-4-OH-Clom” value (“IVSF … (E)-4-OH-Clom” below) (CYP2D6 [2]; AS=0, relative to NM, from in vitro formation rates, supplement ref [17]) of the same compound?
A: Its value is 0.

Q: And the “IVSF … (E)-DE-Clom” value (CYP2D6 [2]; AS=0.5, mean value assumed)?
A: Its value is 0.17.

Q: What about the “IVSF, CYP2D6-mediated pathway → undef.” value (CYP2D6 [2]; AS=0.5, mean value assumed) of the same compound?
A: Its value is 0.17.

Q: And the “IVSF … (E)-4-OH-Clom” value (CYP2D6 [2]; AS=0.5, relative to NM, from in vitro formation rates, supplement ref [17])?
A: The value was 0.19.

Q: What about the “IVSF … (E)-DE-Clom” value (CYP2D6 [2]; AS=0.75, mean value assumed) of the same compound?
A: Its value is 0.23.

Q: What about the “IVSF, CYP2D6-mediated pathway → undef.” value (CYP2D6 [2]; AS=0.75, mean value assumed) of the same compound?
A: The value was 0.23.

Q: And the “IVSF … (E)-4-OH-Clom” value (CYP2D6 [2]; AS=0.75, relative to NM, from in vitro formation rates, supplement ref [17])?
A: Its value is 0.27.

Q: What about the “IVSF … (E)-DE-Clom” value (CYP2D6 [2]; AS=1, mean value assumed) of the same compound?
A: The value was 0.51.

Q: And the “IVSF, CYP2D6-mediated pathway → undef.” value (CYP2D6 [2]; AS=1, mean value assumed)?
A: The value was 0.51.

Q: And the “IVSF … (E)-4-OH-Clom” value (CYP2D6 [2]; AS=1, relative to NM, from in vitro formation rates, supplement ref [17])?
A: Its value is 0.57.

Q: What about the “IVSF … (E)-4-OH-Clom” value (CYP2D6 [2]; AS=2 (NM, reference)) of the same compound?
A: Its value is 1.

Q: What about the “IVSF … (E)-DE-Clom” value (CYP2D6 [2]; AS=2 (NM, reference)) of the same compound?
A: Its value is 1.

Q: What about the “IVSF, CYP2D6-mediated pathway → undef.” value (CYP2D6 [2]; AS=2 (NM, reference)) of the same compound?
A: Its value is 1.

Q: And the “IVSF … (E)-DE-Clom” value (CYP2D6 [2]; AS=3, mean value assumed)?
A: Its value is 1.41.

Q: What about the “IVSF, CYP2D6-mediated pathway → undef.” value (CYP2D6 [2]; AS=3, mean value assumed) of the same compound?
A: Its value is 1.41.

Q: And the “IVSF … (E)-4-OH-Clom” value (CYP2D6 [2]; AS=3, relative to NM, from in vitro formation rates, supplement ref [17])?
A: Its value is 1.52.

Q: And the “bioavailability calculated from reported AUC0-24h after oral and intravenous application” value [3]?
A: The value was ~ 6.3%.

Q: And the “order of AUClast across CYP2D6 phenotypes” value [4]?
A: The value was “AUCPM > AUCIM > AUCNM > AUCUM”.

Q: And the “exposure increase in clarithromycin DD(G)I scenario vs control” value ([4]; NM)?
A: The value was ~ 15%.

Q: What about the “AUClast increase with concomitant paroxetine” value ([4]; all phenotypes except PM) of the same compound?
A: Its value is 2.5–12 fold.

Q: And the “AUClast change during CYP3A4 inhibition” value ([4]; clarithromycin, all phenotypes)?
A: Its value is “slight increase”.

Q: What about the “fraction metabolized (fm) via CYP3A4” value (CYP3A4 [5]) of the same compound?
A: Its value is “approximately 13%”.

Q: And the Km (CYP3A4 [6])?
A: The Km was 0.78 µM.

Q: What about the “intrinsic clearance of CYP2D6 pathway to (Z)-3-hydroxyclomiphene compared to formation of (E)-4-OH-Clom” value (CYP2D6 [7]; higher, ref [19] of supplement) of the same compound?
A: The value was 1.8 fold.

Q: And the Km (CYP2D6 [7]; ref [17, 18] of supplement, read-out: CYP2D6 Km → (E)-DE-Clom)?
A: Its Km is 0.78 µM.

Q: And the Km (CYP2D6 [7]; ref [19] ((E)-Clom, (E)-4-OH-Clom), [17, 18] ((E)-DE-Clom) of supplement, read-out: CYP2D6 Km → undef.)?
A: The Km was 0.03 µM.

Q: What about the Km (CYP2D6 [7]; ref [19] of supplement, read-out: CYP2D6 Km → (E)-4-OH-Clom) of the same compound?
A: The Km was 0.13 µM.

Q: And the “fraction metabolized (fm) via CYP2D6” value (CYP2D6 [8])?
A: The value was roughly 90%.

Q: What does the source list for `CCNCCOc1ccc(/C(=C(/Cl)c2ccccc2)c2ccc(O)cc2)cc1` [(E)-4-OH-DE-Clom, (E)-4-hydroxy-N-desethylclomiphene]?
A: Solubility (pH 6.5) ([1]; pH 6.5, ref [30], [34], [38] of supplement (ChemAxon Chemicalize)): 0.17 mg/ml; logP (lipophilicity), literature ([1]; ref [23, 25-27], [30, 31], [25, 34], [38] of supplement): 4.47; pKa (base), literature [1, 11]: 9.65; pKa (acid) ([1]; ref [34], [38] of supplement (ChemAxon Chemicalize)): 8.69; IVSF, CYP2D6-mediated pathway → undef. (CYP2D6 [2]; AS=0, mean value assumed): 0; IVSF, CYP2D6-mediated pathway → undef. (CYP2D6 [2]; AS=0.5, mean value assumed): 0.17; IVSF, CYP2D6-mediated pathway → undef. (CYP2D6 [2]; AS=0.75, mean value assumed): 0.23; IVSF, CYP2D6-mediated pathway → undef. (CYP2D6 [2]; AS=1, mean value assumed): 0.51; IVSF, CYP2D6-mediated pathway → undef. (CYP2D6 [2]; AS=2 (NM, reference)): 1; IVSF, CYP2D6-mediated pathway → undef. (CYP2D6 [2]; AS=3, mean value assumed): 1.41; Km (CYP2D6 [9]): 8.86 µM; order of AUClast across CYP2D6 phenotypes [4]: AUCIM (AS = 0.5) > AUCNM > AUCUM > AUCPM; observed DGI AUClast effect ratio ([4]; IM (AS = 1) vs NM): ~ 0.8; observed AUClast effect ratio in clarithromycin DDGI scenario vs control ([4]; PM): ~ 0.6 fold; IC50 (estrogen receptor): 0.9 nM; maximum plasma concentration (Cmax) in CYP2D6 PM compared with NM [10]: approximately ten-fold lower

Source: publication PMC9781104 (Pharmaceutics, 2022)
